Data set [1] addresses human cloned 5-HT6 receptors (Homo sapiens, UniProt P50406).

Molecules are shown by their SMILES. Where a name gives a salt, the structure may show the parent alone.

Chain of human cloned 5-HT6 receptors (P50406 whole entry): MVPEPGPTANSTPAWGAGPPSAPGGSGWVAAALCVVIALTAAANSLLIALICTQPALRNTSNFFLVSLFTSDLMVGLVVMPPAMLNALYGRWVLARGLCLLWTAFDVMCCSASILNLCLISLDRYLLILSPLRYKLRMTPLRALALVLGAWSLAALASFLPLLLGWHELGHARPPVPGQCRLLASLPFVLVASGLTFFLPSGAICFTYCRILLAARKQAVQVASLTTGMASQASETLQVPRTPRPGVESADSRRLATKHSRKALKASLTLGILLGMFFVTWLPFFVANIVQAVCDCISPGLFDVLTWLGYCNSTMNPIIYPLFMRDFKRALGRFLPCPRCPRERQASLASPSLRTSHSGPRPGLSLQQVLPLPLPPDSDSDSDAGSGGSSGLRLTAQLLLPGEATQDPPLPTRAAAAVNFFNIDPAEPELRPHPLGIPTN

What is called Ki is the dissociation constant of the complex between target and ligand, obtained from inhibition or displacement. The compound `O=S(=O)(Nc1ccc2c(c1)C(C1CCNCC1)=CCO2)c1ccccc1` [Example 14, N(4-Piperidin-4-yl-2H-chromen-6-yl)benzenesulfonamide Hemihydrate] returned a Ki in data set [1] of 1 nM.

What is called melting point is the temperature, or range, at which the solid turns liquid. In turn, `O=S(=O)(Nc1ccc2c(c1)C(C1CCNCC1)=CCO2)c1ccc(Cl)cc1` [Example 15, 4-chloro-N-(4-piperidin-4-yl-2H-chromen-6-yl)benzenesulfonamide] showed a melting point greater than 240 °C. In addition, in data set [1], the Ki was determined as 2 nM.

In the case of `O=S(=O)(Nc1ccc2c(c1)C(C1CCNCC1)=CCO2)c1cccc2ccccc12` [Example 16, N-(4-piperidin-4-yl-2H-chromen-6-yl)naphthalene-1-sulfonamide], in data set [1], the Ki was 2 nM.

Compound `O=S(=O)(Nc1ccc2c(c1)C(C1CCNCC1)CCO2)c1ccccc1` (centres unmarked) [Example 23, N(4-Piperidin-4-dihydro-2H-chromen-6-yl)benzenesulfonamid Hydrochloride] displayed a Ki in data set [1] of 12 nM.

The record behind these values is patent US7534801B2, “Piperidinylchromen-6-ylsulfonamide compounds as 5-hydroxytryptamine-6 ligands” (Wyeth, priority 2003, dated 2009).
